IC50 data for 30 molecules are collected here from patent US20250171462A1 (NICO Therapeutics, Inc., priority 2022, published 2025).

Like-named read-outs stand apart in the source and are kept apart here.

The assay concerns the target T1, full-length SARM1 (FL-SARM1) (Homo sapiens, UniProt Q6SZW1).
T1 sequence (Q6SZW1 28-724): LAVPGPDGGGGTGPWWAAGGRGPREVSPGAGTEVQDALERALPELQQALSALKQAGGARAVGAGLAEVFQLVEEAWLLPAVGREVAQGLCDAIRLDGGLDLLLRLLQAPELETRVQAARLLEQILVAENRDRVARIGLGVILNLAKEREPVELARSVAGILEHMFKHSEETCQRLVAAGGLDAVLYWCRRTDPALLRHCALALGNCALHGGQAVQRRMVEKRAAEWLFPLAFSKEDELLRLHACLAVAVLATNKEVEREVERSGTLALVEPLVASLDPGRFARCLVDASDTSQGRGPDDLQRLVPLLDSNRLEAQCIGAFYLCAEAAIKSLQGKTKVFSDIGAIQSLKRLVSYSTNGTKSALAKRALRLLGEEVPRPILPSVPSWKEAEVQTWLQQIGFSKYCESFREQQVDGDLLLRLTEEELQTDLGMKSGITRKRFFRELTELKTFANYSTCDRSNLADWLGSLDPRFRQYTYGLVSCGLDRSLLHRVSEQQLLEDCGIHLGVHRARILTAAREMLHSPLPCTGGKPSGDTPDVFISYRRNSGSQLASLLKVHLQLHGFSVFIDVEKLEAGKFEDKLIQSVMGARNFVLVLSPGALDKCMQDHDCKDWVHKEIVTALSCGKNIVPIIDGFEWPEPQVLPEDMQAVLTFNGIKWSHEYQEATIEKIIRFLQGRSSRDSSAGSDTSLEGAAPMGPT
The assay is described as follows: FL-SARM1 cellular lysate assay (NAD/NADH-Glo detection of remaining NAD+, NMN-activated).

The mark [1] stands for this setting: Activity (μM) (IC50), 11 point curve.
The mark [2] stands for this setting: read-out: Activity (IC50 class), 11 point curve.
The mark [3] stands for this setting: Activity (IC50 class), 11 point curve.

As a reminder, the IC50 is the concentration at which inhibition is half-maximal. For `Cc1ccc(NC(=O)N2C3CCCC2C3)cc1-c1ncc(F)cn1` [Example 55, N-(3-(5-fluoropyrimidin-2-yl)-4-methylphenyl)-6-azabicyclo[3.1.1]heptane-6-carboxamide], the IC50 is 0.2 µM under setting [1] and 0.0001 to 1 µM under setting [2].
`O=C(Nc1ccc(C(F)(F)F)c(-c2ccc(F)cn2)c1)N1C2CCCC1C2` [Example 56, N-(3-(5-fluoropyridin-2-yl)-4-(trifluoromethyl)phenyl)-6-azabicyclo[3.1.1]heptane-6-carboxamide]: the IC50 is 1 to 10 µM under setting [3] and 2.2 µM under setting [1].
The like results for `O=C(Nc1ccc(C(F)(F)F)c(-c2ccc(F)cn2)c1)N1C2CCC1c1ccccc12` [Example 57, N-(3-(5-fluoropyridin-2-yl)-4-(trifluoromethyl)phenyl)-1,2,3,4-tetrahydro-1,4-epiminonaphthalene-9-carboxamide] were, in that order, 1 to 10 µM and 3.7 µM.
The like results for `COc1cccnc1-c1cc(NC(=O)N2C3CCCC2C3)ccc1C` [Example 58, N-(3-(3-methoxypyridin-2-yl)-4-methylphenyl)-6-azabicyclo[3.1.1]heptane-6-carboxamide] were, in that order, above 10 µM and 12 µM.
In the case of `O=C(Nc1ccc(OC(F)(F)F)c(-c2ccccn2)c1)N1C2CCCC1C2` [Example 59, N-(3-(pyridin-2-yl)-4-(trifluoromethoxy)phenyl)-6-azabicyclo[3.1.1]heptane-6-carboxamide], the IC50 is, setting by setting: under setting [1], 0.6 µM; under setting [2], 0.0001 to 1 µM.
As for `COc1ccc(-c2cc(NC(=O)N3C4CCCC3C4)ccc2C)nn1` [Example 60, N-(3-(6-methoxypyridazin-3-yl)-4-methyl-phenyl)-6-azabicyclo[3.1.1]heptane-6-carboxamide], the IC50 under setting [3] was 1 to 10 µM and the IC50 under setting [1] is 1.1 µM.
The like results for `Cc1ccc(NC(=O)N2C3CCCC2C3)cc1-c1ccc(C(F)(F)F)nn1` [Example 61, N-(4-methyl-3-(6-(trifluoromethyl)pyridazine-3-yl)phenyl)-6-azabicyclo[3.1.1]heptane-6-carboxamide] were, in that order, above 10 µM and 11 µM.
Turning to `Cc1ccc(NC(=O)N2C3C[C@@H](C)C[C@H]2C3)cc1-c1cccnn1` [Example 62, cis-3-methyl-N-(4-methyl-3-pyridazin-3-yl-phenyl)-6-azabicyclo[3.1.1]heptane-6-carboxamide], the IC50 reads like this: under setting [1], 0.02 µM; under setting [2], 0.0001 to 1 µM.
The like results for `Cc1ccc(NC(=O)N2C3CCCC2C3)cc1-c1cc(C#N)cnn1` [Example 63, N-(3-(5-cyanopyridazin-3-yl)-4-methylphenyl)-6-azabicyclo[3.1.1]heptane-6-carboxamide] were, in that order, 0.7 µM and 0.0001 to 1 µM.
The like results for `C[C@@H]1CC2C[C@H](C1)N2C(=O)Nc1ccc(Cl)c(-c2cccnn2)c1` [Example 64, cis-N-(4-chloro-3-pyridazin-3-ylphenyl)-3-methyl-6-azabicyclo[3.1.1]heptane-6-carboxamide] were, in that order, 0.1 µM and 0.0001 to 1 µM.
On to `COc1ccnc(-c2cc(NC(=O)N3C4CCCC3C4)ccc2C)n1` [Example 65, N-(3-(4-methoxypyrmidin-2-yl)-4-methyl-phenyl)-6-azabicyclo[3.1.1]heptane-6-carboxamide], for which the IC50 under setting [3] was in the range of 1 to 10 µM and the midpoint of inhibition under setting [1], the IC50, lay at 2.3 µM.
Turning to `Cc1ccc(NC(=O)N2C3CCCC2C3)cc1-c1cc(C(F)(F)F)cnn1` [Example 66, N-(4-methyl-3-(5-(trifluoromethyl)pyridazine-3-yl)phenyl)-6-azabicyclo[3.1.1]heptane-6-carboxamide], the IC50 is 0.5 µM under setting [1] and 0.0001 to 1 µM under setting [2].
The like results for `Cc1ccc(NC(=O)N2C3CCCC2C3)cc1-c1nccc(C#N)n1` [Example 67, N-(3-(4-cyanopyrimidin-2-yl)-4-methyl-phenyl)-6-azabicyclo[3.1.1]heptane-6-carboxamide] were, in that order, 0.6 µM and 0.0001 to 1 µM.
As to `Cc1ccc(NC(=O)N2C3CCCC2C3)cc1-c1nccc(C(F)(F)F)n1` [Example 68, N-(4-methyl-3-(4-(trifluoromethyl)pyrimidin-2-yl)phenyl)-6-azabicyclo[3.1.1]heptane-6-carboxamide], the IC50 was 1 to 10 µM under setting [3] and 4.7 µM under setting [1].
As for `Cc1c(F)cc(NC(=O)N2C3CCCC2C3)cc1-c1ccccn1` [Example 69, N-(3-fluoro-4-methyl-5-(pyridin-2-yl)phenyl)-6-azabicyclo[3.1.1]heptane-6-carboxamide], the IC50 was 0.08 µM under setting [1] and 0.0001 to 1 µM under setting [2].
For `Cc1cc(NC(=O)N2C3CCCC2C3)cc(-c2ccccn2)c1C` [Example 71, N-(3,4-dimethyl-5-(pyridin-2-yl)phenyl)-6-azabicyclo[3.1.1]heptane-6-carboxamide], the IC50 was above 10 µM under setting [3] and 10.9 µM under setting [1].
For `Cc1ccc(NC(=O)N2C3CC2CN(c2ncccn2)C3)cc1-c1ccccn1` [Example 72, N-(4-methyl-3-(pyridin-2-yl)phenyl)-3-(pyrimidin-2-yl)-3,6-diazabicyclo[3.1.1]heptane-6-carboxamide] the same measures were 1 to 10 µM and 1.2 µM.
As to `Cc1ccc(NC(=O)C2C3CCC2CC3)cc1-c1ccccn1` (stereo not drawn) [Example 73, N-(4-methyl-3-(pyridin-2-yl)phenyl)bicyclo[2.2.1]heptane-7-carboxamide], the IC50 by setting is: under setting [1], 0.09 µM; under setting [2], 0.0001 to 1 µM.
For `Cc1ccc(NC(=O)N2C3C[C@H](C#N)C[C@@H]2C3)cc1-c1ccccn1` [Example 74, cis-3-cyano-N-(4-methyl-3-(pyridin-2-yl)phenyl)-6-azabicyclo[3.1.1]heptane-6-carboxamide], the IC50 was 0.3 µM under setting [1] and 0.0001 to 1 µM under setting [2].
On to `Cc1ccc(NC(=O)N2C3C[C@@H](C#N)C[C@@H]2C3)cc1-c1ccccn1` [Example 75, trans-3-cyano-N-(4-methyl-3-(pyridin-2-yl)phenyl)-6-azabicyclo[3.1.1]heptane-6-carboxamide], for which the IC50 by setting is: under setting [1], 0.4 µM; under setting [2], 0.0001 to 1 µM.
`Cc1cc(C)c(-c2ccccn2)cc1NC(=O)N1C2CCCC1C2` [Example 76, N-(2,4-dimethyl-5-(pyridin-2-yl)phenyl)-6-azabicyclo[3.1.1]heptane-6-carboxamide] had an IC50 under setting [3] of 1 to 10 µM and an IC50 under setting [1] of 6.8 µM.
On to `Cc1c(Cl)cc(NC(=O)N2C3CCCC2C3)cc1-c1ccccn1` [Example 77, N-(3-chloro-4-methyl-5-(pyridin-2-yl)phenyl)-6-azabicyclo[3.1.1]heptane-6-carboxamide], for which the IC50 by setting is: under setting [1], 0.8 µM; under setting [2], 0.0001 to 1 µM.
The like results for `Cc1c(Br)cc(NC(=O)N2C3CCCC2C3)cc1-c1ccccn1` [Example 78, N-(3-bromo-4-methyl-5-(pyridin-2-yl)phenyl)-6-azabicyclo[3.1.1]heptane-6-carboxamide] were, in that order, 0.7 µM and 0.0001 to 1 µM.
As to `CCO[C@H]1CC2C[C@H](C1)N2C(=O)Nc1ccc(C)c(-c2ccccn2)c1` [Example 79, trans-3-ethoxy-N-(4-methyl-3-(pyridin-2-yl)phenyl)-6-azabicyclo[3.1.1]heptane-6-carboxamide], the IC50 reads like this: under setting [3], 1 to 10 µM; under setting [1], 2.8 µM.
In the case of `Cc1ccc(NC(=O)N2C3CC2c2ncnn2C3)cc1-c1ccccn1` (stereo not drawn) [Example 80, N-(4-methyl-3-pyridin-2-ylphenyl)-3,5,6,9-tetrazatricyclo[6.1.1.02,6]deca-2,4-diene-9-carboxamide], the IC50 under setting [3] is above 10 µM and the IC50 under setting [1] worked out at 13 µM.
The like results for `Cc1cc(F)cnc1-c1cccc(NC(=O)N2C3CCCC2C3)c1` [Example 81, N-[3-(5-fluoro-3-methylpyridin-2-yl)phenyl]-6-azabicyclo[3.1.1]heptane-6-carboxamide] were, in that order, 1 to 10 µM and 3.4 µM.
The like results for `Cc1cc(Cl)c(NC(=O)N2C3CCCC2C3)cc1-c1ccccn1` [Example 82, N-(2-chloro-4-methyl-5-pyridin-2-ylphenyl)-6-azabicyclo[3.1.1]heptane-6-carboxamide] were, in that order, 1 to 10 µM and 1.5 µM.
For `Cc1c(C#N)cc(NC(=O)N2C3CCCC2C3)cc1-c1ccccn1` [Example 83, N-(3-cyano-4-methyl-5-pyridin-2-ylphenyl)-6-azabicyclo[3.1.1]heptane-6-carboxamide] the same measures were above 10 µM and 35 µM.
`CCO[C@@H]1CC2C[C@H](C1)N2C(=O)Nc1ccc(C)c(-c2ccccn2)c1` [Example 84, cis-3-ethoxy-N-(4-methyl-3-(pyridin-2-yl)phenyl)-6-azabicyclo[3.1.1]heptane-6-carboxamide]: the IC50 was 1 to 10 µM under setting [3] and 1.6 µM under setting [1].
For `Cc1ccc(NC(=O)N2C3CC2CN(c2ccn(C)n2)C3)cc1-c1ccccn1` [Example 85, 3-(1-methylpyrazol-3-yl)-N-(4-methyl-3-pyridin-2-ylphenyl)-3,6-diazabicyclo[3.1.1]heptane-6-carboxamide] the same measures were above 10 µM and 23 µM.
